Patent publication US7795213B2 (POSCO, priority 2002, dated 2010)

Columns and labels:
Aβ40-1 [1] = details: 100 μM Aβ40-1, 1 nM 125I-VEGF165, 37° C., 2 days; P=0.0076
Method: (§1) The aggregation of Aβ1-40 was determined as described with some modifications (Chang et al., Brain Res Brain Res Protoc 2000;6(1-2):6-12). After a two day incubation of Aβ1-40 (100 μM) with FITC-conjugated Aβ1-40 (1 μM) in 50 mM MES, pH 5.8, at 37° C., the mixture was centrifuged, and fluorescence in the pellet was measured. […] Then the mixtures were centrifuged and radioactivity in pellet was determined in a gamma-counter. […] The radioactivity in the pellet was determined.

Aβ40-1 [2] = system: Aβ40-1
Method: (§2) Aβ1-40, Aβ1-42, and Aβ40-1 (BACHEM, Bubendorf, Switzerland) were immobilized on a CM5 sensor chip (BIAcore AB, Uppsala, Sweden) with an amine coupling kit. Alpha2-macroglobulin, alpha1-antichymotrypsin, serum amyloid P component, apolipoprotein E4, and VEGF165 (100 nM) were allowed to bind to the immobilized Aβ at a flow rate of 10 μl/min and sensorgrams were recorded in real time.

Aβ1-40 [3] = biological target: T1, Aβ1-40 (Homo sapiens, UniProt P05067); experiment: Effect of VEGF on the aggregation rate of Aβ, FITC-Aβ1-40 fluorescence in pellet; type: biochemical; details: VEGF 1 μM; 50 μM and 100 μM Aβ1-40; 37° C.
T1 construct: Aβ1-40, Aβ1-42, and Aβ40-1 (BACHEM, Bubendorf, Switzerland) were immobilized on a CM5 sensor chip; purchased BACHEM

Aβ = biological target: T2, Aβ (Homo sapiens, UniProt P05067); experiment: Binding of growth factors to Aβ; details: among NGF, bFGF, PDGF, VEGF and midkine
T2 construct: Aβ (Aβ) is the major component of senile plaques and is derived from the amyloid precursor protein by proteolytic cleavage

Aβ1-42 [4] = biological target: T3, Aβ1-42 (Homo sapiens, UniProt P05067); experiment: Thioflavin T assay of Aβ aggregation; type: biochemical; details: 50 μM Aβ1-42, 37° C., 24 hours; VEGF or GST-HBD at various concentrations
T3 construct: Aβ1-40, Aβ1-42, and Aβ40-1 (BACHEM, Bubendorf, Switzerland) were immobilized on a CM5 sensor chip; purchased BACHEM
Method: 10 μM of thioflavin T was added to the mixture and sufficiently mixed. Then, the fluorescence of the mixture was measured at Ex=444 nm and Em=485 nm, and then, compared with that of control of Aβ incubated alone, to determine the affection on aggregation of Aβ.
50 μM Aβ was incubated at 37° C. for 24 hours together with triamterene of 0 μM, 4 μM, 20 μM or 100 μM, respectively, to generate aggregation of Aβ. Then, the degree of aggregation was determined by the thioflavin T assay as illustrated in Example 11.

pre-aggregated Aβ1-40 = biological target: T4, pre-aggregated Aβ1-40 (Homo sapiens, UniProt P05067); experiment: Binding of 125I-VEGF to pre-aggregated Aβ, immediate centrifugation; details: 50 μM Aβ preincubated for 2 days, 1 nM 125I-VEGF, immediately centrifuged
T4 construct: Aβ1-40, Aβ1-42, and Aβ40-1 (BACHEM, Bubendorf, Switzerland) were immobilized on a CM5 sensor chip; purchased BACHEM
Method: as §1

immobilized Aβ aggregate = biological target: T5, immobilized Aβ aggregate (Homo sapiens, UniProt P05067); experiment: In vitro VEGF trapping on immobilized Aβ aggregate; type: binding; details: 50 μM Aβ aggregated 24 hours and dried on well; radiolabeled VEGF; no inhibitor
T5 construct: Aβ (Aβ) is the major component of senile plaques and is derived from the amyloid precursor protein by proteolytic cleavage
Method: The system is simulating VEGF trapping on Aβ plaques under in vitro condition. In the in vitro assay system, 50 μM of Aβ was aggregated at 37° C. for 24 hours and immobilized on the bottom of a well by drying under air for overnight, and then, VEGF labeled with a radioisotope was added to the well, to form VEGF-Aβ binding. After removing unbound VEGF, bound VEGF was determined by measuring radioactivity. […] If certain chemical has inhibitory activity against VEGF-Aβ binding, then the chemical will decrease the amount of VEGF trapped on immobilized Aβ aggregate.

Aβ/VEGF co-aggregate = biological target: T6, Aβ/VEGF co-aggregate (Homo sapiens, UniProt P05067); experiment: Dissociation assay of VEGF from Aβ/VEGF co-aggregate; type: binding; details: after 3 days; 50 mM MES, pH 5.8
T6 construct: purchased BACHEM (Aβ peptides); Amersham Pharmacia Biotech (125I-VEGF)
Method: The radioactivity in the supernate was determined. […] The mixtures were separated by SDS-PAGE (10%) and autoradiographed.

Aβ1-42 [5] = biological target: T3, Aβ1-42; experiment: Surface plasmon resonance binding to Aβ peptide on CM5 sensor chip; details: 100 nM protein; versus alpha2-macroglobulin, alpha1-antichymotrypsin, serum amyloid P component, apolipoprotein E4
Method: as §2

Aβ1-40 [6] = biological target: T1, Aβ1-40; experiment: as above; details: 100 nM protein; versus alpha2-macroglobulin, alpha1-antichymotrypsin, serum amyloid P component, apolipoprotein E4
Method: as §2

PC12 cells = experiment: DCF fluorescence, generation of reactive oxygen species by Aβ; type: cell-based; details: PC12 cells 3 hours
Method: 5 μM VEGF165 or 5 μM GST-HBD and 5 μM Aβ1-42 were mixed and incubated at 37° C. for 24 hours. The mixture was added to PC12 cells (6×10^4, cells/well, kindly provided by Dr. Pann-Ghill Suh), and then left for reaction at 37° C. for 3 hours. Then, 100 μM of DCF solution was added to the resulted mixture, reacted for 30 minutes, and then washed with PBS (phosphate-buffered saline). The obtained cells were observed through a fluorescent microscope, and DCF fluorescence was measured, to calculate the level of generation of the reactive oxygen species.

Aβ1-40 [7] = biological target: T1, Aβ1-40; experiment: Co-aggregation assay of 125I-VEGF165 with Aβ, radioactivity in pellet; type: binding; details: 100 μM Aβ1-40, 1 nM 125I-VEGF165, 37° C., 2 days; approximately 60% of Aβ alone in pellet
Method: as §1

Aβ1-40 [8] = biological target: T1, Aβ1-40; experiment: 125I-VEGF competition binding to immobilized Aβ peptide in microtiter wells; details: read-out: dissociation constant (KD) of VEGF for Aβ; immobilized Aβ1-40; 50 pM 125I-VEGF with increasing unlabeled VEGF; KD=IC50-[125I-VEGF]
[9] = Keyt et al., J. Biol. Chem. 1996; cited from earlier work

Aβ40-1, sequence (as listed by the source): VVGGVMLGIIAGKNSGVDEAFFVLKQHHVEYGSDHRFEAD

- binding to Aβ40-1 (reverse peptide) (Aβ40-1 [2]): did not bind
- influence of VEGF on the aggregation of Aβ1-40 (time course) (Aβ1-40 [3]): no significant influence
- binding of growth factor to Aβ (Aβ): bound to A
- binding of VEGF to pre-aggregated Aβ (pelleted by centrifugation) (pre-aggregated Aβ1-40): bound to pre-aggregated Aβ
- VEGF trapping into Aβ, share of VEGF added (immobilized Aβ aggregate): about 70%
- VEGF released from the Aβ/VEGF complex (Aβ/VEGF co-aggregate): less than 1.5%
- proportion of 125I-VEGF in the pellet after incubation with Aβ1-40 (Aβ1-40 [7]): About the same proportion
- Kd (Aβ1-40 [8]): ~50 pM
Substance: VEGF
- sedimentation of VEGF in presence of Aβ40-1 (Aβ40-1 [1]): did not cause extensive sedimentation of VEGF
- inhibition of aggregation of Aβ (thioflavin T) (Aβ1-42 [4]): inhibit aggregation of Aβ depending on the concentration
- binding to immobilized Aβ1-42 (surface plasmon resonance) (Aβ1-42 [5]): much more strongly than other molecules that are known to bind to Aβs
- binding to immobilized Aβ1-40 (surface plasmon resonance) (Aβ1-40 [6]): much more strongly than other molecules that are known to bind to Aβs
- generation of the reactive oxygen species, treatment alone (PC12 cells; 5 μM VEGF165 or 5 μM GST-HBD alone): no effect on the generation of the reactive oxygen species
- generation of the reactive oxygen species by Aβ, treatment together with Aβ (PC12 cells; 5 μM VEGF165 or 5 μM GST-HBD with 5 μM Aβ1-42): inhibitory effect on the generation of the reactive oxygen species by Aβ
- bioactivity relative to VEGF121 [9]: 100 fold
